Assay results from patent US20260242320A1, “USE OF CANNABIDIOL DERIVATIVE IN PREPARATION OF MEDICAMENT” (priority 2023, published 2026).
“Also recorded” adds a separate entry of the source.

Tests used:
Open field test = format: in vivo, mice; details: 20 mg/kg i.p., seven consecutive days
Experimental: After two days of habitation, each mouse was placed in the open field, and the moving distances within 1 h and the grooming and rubbing numbers within the first 15 min was recorded as vehicle control (pre-test group). Next, each mouse was administered CIAC001 (20 mg/kg; i.p.) once daily for 7 days. 24 h after the last administration, the moving distances and the grooming and rubbing numbers were measured again to compare changes before and after CIAC001 treatment.

PKM2 protein = PKM2 protein (Homo sapiens, UniProt P14618); assay: Fluorescence titration of purified PKM2; format: binding; details: PKM2 0.5 μM
Experimental: PKM2 protein (0.5 μM) was titrated with increasing concentrations of CIAC001, and the fluorescence intensity (λex 280 nm; λem 337 nm) was recorded by a fluorescence spectrophotometer (Cary Eclipse, Agilent Technologies Inc., USA). Appropriate controls were subtracted from the spectra obtained from the samples. The data were fitted by the nonlinear least squares method using Equation 8, derived from equations 1-7.
Because [LP2]^3 is far less than (LT+PT)×[LP2]^2, Equation 6 can be simplified as Equation 7, allowing derivation of Equation 8: […]
where F is the measured fluorescence; F0 is the initial fluorescence of PKM2 in the absence of CIAC001; FPL is an adjustable parameter for protein-ligand complex molar fluorescence; KD is the dissociation constant; LT is the total concentration of CIAC001; and PT is the total PKM2 concentration. The stoichiometry n was fitted according to the equation […].

CB1 Receptor = target: T1, CB1 Receptor (Homo sapiens, UniProt P21554); assay: cAMP measurement, forskolin-induced cAMP accumulation, CB1; format: cell-based; details: cAMP assay
T1 construct: expressed in transfected cells; host or cells: GloSensor 22-F HEK293 cells
Experimental: (§1) GloSensor 22-F HEK293 cells were transfected with plasmids encoding different receptors (CB1 and CB2). After 24 h, HEK293 cells were seeded at a density of 5×10^4 cells per well in 96-well plates and incubated for 8 h; then, the medium was removed, and 200 μL of serum-free DMEM medium containing 2% GloSensor cAMP substrate (Promega) was added. After 2 h incubation, the transfected cells were stimulated with different concentrations of ligands together with […]. The luminescence was recorded using a Multimode Plate Reader (En Vision, PerkinElmer).

LPS-activated BV-2 cells = assay: Cell morphology determination; format: cell-based; details: 10 μM, LPS 200 ng/ml, 24 h
Experimental: BV-2 cells were seeded at a density of 2.5×10^5 cells per milliliter in 6-well plates and incubated for 12 h. Cells were incubated with CIAC001 (10 μM) in the absence or presence of LPS (200 ng/ml) for 24 h. The images of BV-2 cells were taken with an inverted microscope (Ts2-FL, Nikon Corporation, Tokyo, Japan) and analyzed by ImageJ. Statistic data are counted in at least three hundred cells.

CB2 Receptor = target: T2, CB2 Receptor (Homo sapiens, UniProt P34972); assay: cAMP measurement, forskolin-induced cAMP accumulation, CB2; format: cell-based; details: cAMP assay
T2 construct: expressed in transfected cells; host or cells: GloSensor 22-F HEK293 cells
Experimental: as §1

[1] = test system: LPS-induced IL-1β, TNF-α, IL-6, iNOS, IL-10 mRNA in BV-2 cells; assay: qRT-PCR of proinflammatory and M1/M2 marker mRNAs in LPS-treated BV-2 cells; format: cell-based
Experimental: Total RNA was extracted from cells or mouse brains using the RNeasy Mini Kit. Isolated RNA was reverse-transcribed into cDNA using an RT2 Easy First Strand cDNA Synthesis Kit following the manufacturer's protocols. PCR amplification was conducted using synthetic primers, SYBR Green, and a TOptical Real-Time qPCR Thermal Cycler (Analytik Jena, Thuringia, Germany). The data were analyzed by the […] method, and Rpl711 or Rpl27 was used as an internal control.

[2] = Respiratory rate determination; format: in vivo, mice; details: CIAC001 20 mg/kg i.p.; THC 10 mg/kg i.p.
Experimental: Mice were intraperitoneally injected with 20 mg/kg CIAC001 or 10 mg/kg THC once daily. After 1 h, the mice were anesthetized with isoflurane by a small animal anesthesia machine (R500IE, RWD Life Science Co) on day 2 and day 5. The respiratory rate of mice was recorded three times within 20 s. The weights of mice were recorded every day.

[3] = target: T3, nuclear PKM2 in BV-2 cells (Mus musculus, UniProt P52480); assay: Subcellular localization of PKM2; format: cell-based; details: BV-2, LPS 200 ng/mL, 10 μM, 6 h
T3 construct: endogenous in cells; host or cells: BV-2 cells
Experimental: BV-2 cells were treated with 200 ng/mL LPS and 10 μM CIAC001 for 6 h. Cells were washed, harvested with ice-cold PBS, and centrifuged at 800 g for 5 min at 4° C. Cells were lysed in cytoplasmic lysis buffer (10 mM HEPES pH 7.6, 10 mM KCl, 0.5 mM […], 1.5 mM MgCl2, and 1 mM DTT) plus the protease inhibitor cocktail for 20 min on ice. A final concentration of 0.5% NP40 was added to the lysate and incubated for 2 min on ice. Lysates were centrifuged at 2000 g for 10 min at 4° C., and the supernatants were cytoplasmic lysates. Pellets were washed twice with ice-cold PBS. Nuclear pellets were lysed for 30 min on ice with nuclear lysis buffer (10 mM Tris-HCl pH 7.6, 450 mM NaCl, 2 mM MgCl2, 0.5% NP-40, and 1 mM DTT) plus a protease inhibitor cocktail. Lysates were centrifuged at 12,000 g for 10 min at 4° C., and the supernatants were nuclear lysates. The nuclear lysates were diluted with low-salt buffer (10 mM Tris-HCl pH 7.6 and 2 mM MgCl2) to a final salt concentration of 150 mM in the lysates. The total protein concentrations in the nuclear and cytoplasmic extracts were determined by the BCA assay and then normalized. The lysate supernatants were denatured in 2× Laemmli sample buffer at 100° C. for 8 min for western blotting with the corresponding antibody.

[4] = Pharmacokinetic profiles in brain and plasma after oral administration; format: in vivo, mice
Experimental: Following administration, mice (BALB/c, male, 20-25 g) were sacrificed at 0.5, 1, 2, 3, and 4 h. The blood and brain tissue were collected and extracted with acetonitrile.

[5] = LPS-treated cells, mRNA by qPCR

T3 sequence (P52480 whole entry): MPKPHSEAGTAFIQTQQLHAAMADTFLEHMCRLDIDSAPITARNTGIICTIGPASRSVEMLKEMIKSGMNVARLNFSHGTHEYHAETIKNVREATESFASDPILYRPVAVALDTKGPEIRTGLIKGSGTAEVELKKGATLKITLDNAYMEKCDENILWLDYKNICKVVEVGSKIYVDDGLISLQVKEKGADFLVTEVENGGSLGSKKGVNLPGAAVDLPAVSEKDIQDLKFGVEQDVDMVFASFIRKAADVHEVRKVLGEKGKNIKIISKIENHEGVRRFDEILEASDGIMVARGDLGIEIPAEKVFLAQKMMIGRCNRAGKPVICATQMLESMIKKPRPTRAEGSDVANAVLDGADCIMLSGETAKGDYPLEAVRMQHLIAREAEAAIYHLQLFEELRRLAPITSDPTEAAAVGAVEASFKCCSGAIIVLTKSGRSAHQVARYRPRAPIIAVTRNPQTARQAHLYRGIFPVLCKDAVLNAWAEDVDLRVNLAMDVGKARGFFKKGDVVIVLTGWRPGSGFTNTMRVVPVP
Sequence of PKM2 protein (P14618 whole entry, species assumed): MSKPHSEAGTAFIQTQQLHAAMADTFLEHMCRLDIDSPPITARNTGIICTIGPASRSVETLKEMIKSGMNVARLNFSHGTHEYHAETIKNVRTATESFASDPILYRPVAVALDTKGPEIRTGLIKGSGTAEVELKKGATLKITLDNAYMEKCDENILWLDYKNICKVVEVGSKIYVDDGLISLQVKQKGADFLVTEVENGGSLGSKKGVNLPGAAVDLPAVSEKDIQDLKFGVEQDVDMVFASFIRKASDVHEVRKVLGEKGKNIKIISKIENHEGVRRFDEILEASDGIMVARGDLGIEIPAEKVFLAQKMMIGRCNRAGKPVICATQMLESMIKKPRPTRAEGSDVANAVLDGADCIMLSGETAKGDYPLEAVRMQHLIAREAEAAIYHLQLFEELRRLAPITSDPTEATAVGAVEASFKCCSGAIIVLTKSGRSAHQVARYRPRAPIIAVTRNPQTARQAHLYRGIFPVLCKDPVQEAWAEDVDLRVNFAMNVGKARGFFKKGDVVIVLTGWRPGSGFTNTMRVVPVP
T1 sequence (P21554 whole entry): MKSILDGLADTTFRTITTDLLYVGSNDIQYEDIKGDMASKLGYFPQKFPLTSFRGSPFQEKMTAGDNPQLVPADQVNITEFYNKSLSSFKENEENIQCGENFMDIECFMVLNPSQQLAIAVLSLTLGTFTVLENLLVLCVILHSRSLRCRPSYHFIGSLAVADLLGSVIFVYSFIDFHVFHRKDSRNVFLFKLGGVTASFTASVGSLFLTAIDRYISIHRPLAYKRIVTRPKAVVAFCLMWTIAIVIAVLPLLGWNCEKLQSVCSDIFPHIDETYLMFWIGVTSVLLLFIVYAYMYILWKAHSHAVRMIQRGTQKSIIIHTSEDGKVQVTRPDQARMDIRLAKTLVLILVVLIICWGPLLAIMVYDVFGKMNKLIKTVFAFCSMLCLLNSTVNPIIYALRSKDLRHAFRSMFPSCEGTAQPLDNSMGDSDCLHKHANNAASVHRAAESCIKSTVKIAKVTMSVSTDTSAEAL
T2 sequence (P34972 whole entry): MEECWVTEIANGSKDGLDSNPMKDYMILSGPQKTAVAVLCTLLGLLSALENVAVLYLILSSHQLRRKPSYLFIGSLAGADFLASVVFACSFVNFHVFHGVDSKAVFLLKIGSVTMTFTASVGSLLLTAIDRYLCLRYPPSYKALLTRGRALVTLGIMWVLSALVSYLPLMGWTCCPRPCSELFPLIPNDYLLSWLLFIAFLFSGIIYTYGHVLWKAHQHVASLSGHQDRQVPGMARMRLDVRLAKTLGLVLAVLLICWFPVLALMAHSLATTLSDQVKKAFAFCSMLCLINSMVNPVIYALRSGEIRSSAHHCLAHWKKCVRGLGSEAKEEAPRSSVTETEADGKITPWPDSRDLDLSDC

C=C(C)[C@@H]1CCC(C)=C[C@H]1c1c(O)cc(C(C)n2nccn2)cc1O (stereo partly drawn) [CIAC001, (1′R,2′R)-4-(1-(2H-1,2,3-Triazol-2-yl)ethyl)-5′-methyl-2′-(prop-1-en-2-yl)-1′,2′,3′,4′-tetrahydro-[1,1′-biphenyl]-2,6-diol]
grooming and rubbing behaviors (open field) (Open field test): No apparent differences
motor activity (open field) (Open field test): No apparent differences
stoichiometry of CIAC001-PKM2 interaction (PKM2 protein): 0.54±0.07
Kd (PKM2 protein; intrinsic fluorescence quenching, read-out: dissociation constant KD): 2200 ± 200 nM
CB1 receptor activity (CB1 Receptor): no apparent CB1/CB2 activity
LPS-induced morphological changes of microglia (LPS-activated BV-2 cells): considerably reversed
CB2 receptor activity (CB2 Receptor): no apparent CB1/CB2 activity
LPS-induced overexpression of IL-1β mRNA ([1]; BV-2 cells): concentration-dependently inhibited
LPS-induced overexpression of IL-6 mRNA ([1]; BV-2 cells): concentration-dependently inhibited
LPS-induced overexpression of TNF-α mRNA ([1]; BV-2 cells): concentration-dependently inhibited
expression of M1 phenotype markers IL-1β and iNOS [1, 5]: inhibited LPS-induced increased expression
expression of M2 phenotype marker IL-10 [1, 5]: attenuated LPS-induced decreased expression
respiratory rate [2]: did not affect the respiratory rate
LPS-induced translocation of nuclear PKM2 [3]: completely reversed; also recorded: inhibited LPS-induced translocation of nuclear PKM2
AUC0→t ([4]; brain, 10 mg/kg p.o., mice): 172.8 ng·h/g
AUC0→∞ ([4]; brain, 10 mg/kg p.o., mice): 191.3 ng·h/g
MRT ([4]; brain, 10 mg/kg p.o., mice): 54 min
brain Cmax ([4]; brain, 10 mg/kg p.o., mice): 175.0 ng/g
t1/2 ([4]; brain, 10 mg/kg p.o., mice): 48 min
Kp ([4]; male, BALB/c, mouse, brain / plasma, oral, 10 mg/kg p.o., read-out: B/P ratios within the first 3 h after administration): > 2
Kp at 0.5 h ([4]; male, BALB/c, mouse, brain / plasma, po, 0.5 h, 10 mg/kg p.o., read-out: B/P ratio): 3.31 ± 0.382
Kp at 1 h ([4]; male, BALB/c, mouse, brain / plasma, po, 1 h, 10 mg/kg p.o., read-out: B/P ratio): 3.63 ± 0.425
Kp at 2 h ([4]; male, BALB/c, mouse, brain / plasma, po, 2 h, 10 mg/kg p.o., read-out: B/P ratio): 4.12 ± 1.44
Kp at 3 h ([4]; male, BALB/c, mouse, brain / plasma, po, 3 h, 10 mg/kg p.o., read-out: B/P ratio): 5.76 ± 1.34
Tmax ([4]; male, BALB/c, mouse, po, brain, 10 mg/kg p.o., mice, read-out: Tmax): 18 min
BBB permeability and CNS pharmacokinetics compared to CBD ([4]; oral administration): better BBB permeability and CNS pharmacokinetics
brain Cmax relative to CBD ([4]; vs CBD, 10 mg/kg p.o.): approximately 2 times
